Biological target: T1, human vasopressin V1b receptor (Homo sapiens, UniProt P47901)
T1 construct: expressed in transfected cells; host or cells: CHO-K1 (cell line hV1b-3H2_CHO), membrane preparation
T1 sequence (P47901 1-424): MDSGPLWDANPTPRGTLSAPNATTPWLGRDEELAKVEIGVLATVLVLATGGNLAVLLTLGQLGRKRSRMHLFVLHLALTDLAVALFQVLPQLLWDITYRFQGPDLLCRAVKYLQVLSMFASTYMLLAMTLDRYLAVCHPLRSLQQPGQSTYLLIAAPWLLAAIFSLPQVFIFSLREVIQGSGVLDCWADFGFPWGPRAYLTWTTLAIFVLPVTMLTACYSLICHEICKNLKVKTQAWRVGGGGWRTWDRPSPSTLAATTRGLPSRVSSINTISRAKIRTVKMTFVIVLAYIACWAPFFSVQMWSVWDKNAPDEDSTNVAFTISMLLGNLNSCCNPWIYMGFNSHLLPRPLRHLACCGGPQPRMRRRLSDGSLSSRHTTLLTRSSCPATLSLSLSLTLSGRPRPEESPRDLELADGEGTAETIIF
Assay: Vasopressin V1b receptor binding assay
Conditions: membranes from CHO-K1 cells with stably expressed human V1b receptors; displacement of 1.5 nM 3H-AVP; read-out: V1b receptor affinity (affinity constant Ki)
How it was run: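 Membranes expressing human V1b receptor were incubated with radioligand and test compound (2% DMSO final) in 50 mM Tris, 10 mM MgCl2, 0.1% BSA, pH 7.4, for 60 min at room temperature, in triplicate. 1 uM AVP defined nonspecific binding. Bound ligand was separated by filtration and counted by scintillation; Ki came from nonlinear regression.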

SMILES	Ki [nM]
CCCN1CCN([C@H]2CCN(C(=O)C(c3ccccc3)n3c(=O)n(S(=O)(=O)c4ccc(C#N)cc4)c4ccc(C#N)cc43)C2)CC1 (stereo partly drawn) [Example 215, 1-(4-Cyano-benzenesulfonyl)-2-oxo-3-{2-oxo-1-phenyl-2-[(S)-3-(4-propylpiperazin-1-yl)-pyrrolidin-1-yl]ethyl}-2,3-dihydro-1H-benzoimidazole-5-carbonitrile]	100 to 500
COc1ccc(S(=O)(=O)n2c(=O)n(C(C(=O)N3CC[C@H](NC(=O)OC(C)(C)C)C3)c3ccccc3)c3cc(C#N)ccc32)cc1 (stereo partly drawn) [Example 216, ((S)-1-{2-[6-Cyano-3-(4-methoxy-benzenesulfonyl)-2-oxo-2,3-dihydrobenzoimidazol-1-yl]-2-phenyl-acetyl}-pyrrolidin-3-yl)-carbamic acid tert-butyl ester]	500 to 10000
COc1ccc(S(=O)(=O)n2c(=O)n(C(C(=O)N3CC[C@H](CN4CCN(Cc5ccccc5)CC4)C3)c3ccccc3)c3cc(C#N)ccc32)cc1 (stereo partly drawn) [Example 220, 3-{2-[(R)-3-(4-Benzyl-piperazin-1-ylmethyl)-pyrrolidin-1-yl]-2-oxo-1-phenylethyl}-1-(4-methoxy-benzenesulfonyl)-2-oxo-2,3-dihydro-1H-benzoimidazole-5-carbonitrile; compound with trifluoroacetic acid]	< 100
COc1ccc(S(=O)(=O)n2c(=O)n(C(C(=O)N3CC[C@@H](CN4CCN(Cc5ccccc5)CC4)C3)c3ccccc3)c3cc(C#N)ccc32)cc1 (stereo partly drawn) [Example 221, 3-{2-[(S)-3-(4-Benzyl-piperazin-1-ylmethyl)-pyrrolidin-1-yl]-2-oxo-1-phenylethyl}-1-(4-methoxy-benzenesulfonyl)-2-oxo-2,3-dihydro-1H-benzoimidazole-5-carbonitrile; compound with trifluoroacetic acid]	< 100
COc1ccc(S(=O)(=O)n2c(=O)n(C(C(=O)N3CC[C@H](CN4CCNCC4)C3)c3ccccc3)c3cc(C#N)ccc32)cc1 (stereo partly drawn) [Example 226, 1-(4-Methoxy-benzenesulfonyl)-2-oxo-3-[2-oxo-1-phenyl-2-((R)-3-piperazin-1-ylmethyl-pyrrolidin-1-yl)-ethyl]-2,3-dihydro-1H-benzoimidazole-5-carbonitrile]	< 100
CCN1CCN([C@H]2CCCN(C(=O)C(c3ccccc3)n3c(=O)n(S(=O)(=O)c4ccc(OC)cc4)c4ccc(C#N)cc43)C2)CC1 (stereo partly drawn) [Example 231, 3-{2-[(S)-3-(4-Ethyl-piperazin-1-yl)-piperidin-1-yl]-2-oxo-1-phenyl-ethyl}-1-(4-methoxy-benzenesulfonyl)-2-oxo-2,3-dihydro-1H-benzoimidazole-5-carbonitrile; compound with trifluoroacetic acid]	< 100
CCCN1CCN([C@H]2CCN(C(=O)C(c3ccccc3)n3c(=O)n(S(=O)(=O)c4ccc(OCCF)cc4)c4ccc(C#N)cc43)C2)CC1 (stereo partly drawn) [Example 232, 1-[4-(2-Fluoro-ethoxy)-benzenesulfonyl]-2-oxo-3-{2-oxo-1-phenyl-2-[(S)-3-(4-propyl-piperazin-1-yl)-pyrrolidin-1-yl]-ethyl}-2,3-dihydro-1H-benzoimidazole-5-carbonitrile]	100 to 500
CCCN1CCN([C@H]2CCN(C(=O)C(c3ccccc3)n3c(=O)n(S(=O)(=O)c4ccc(OCC(F)F)cc4)c4ccc(C#N)cc43)C2)CC1 (stereo partly drawn) [Example 233, 1-[4-(2,2-Difluoro-ethoxy)-benzenesulfonyl]-2-oxo-3-{2-oxo-1-phenyl-2-[(S)-3-(4-propyl-piperazin-1-yl)-pyrrolidin-1-yl]-ethyl}-2,3-dihydro-1H-benzoimidazole-5-carbonitrile]	< 100
CCCN1CCN([C@H]2CCN(C(=O)C(c3ccccc3)n3c(=O)n(S(=O)(=O)c4ccc(OCC(F)(F)F)cc4)c4ccc(C#N)cc43)C2)CC1 (stereo partly drawn) [Example 234, 2-oxo-3-{2-oxo-1-phenyl-2-[(S)-3-(4-propyl-piperazin-1-yl)-pyrrolidin-1-yl]-ethyl}1-[4-(2,2,2-trifluoro-ethoxy)-benzenesulfonyl]-2,3-dihydro-1H-benzoimidazole-5-carbonitrile]	100 to 500
CCCN1CCN(C[C@H]2CCN(C(=O)C(c3ccccc3)n3c(=O)n(S(=O)(=O)c4ccc(OC)cc4)c4ccc(C#N)cc43)C2)CC1 (stereo partly drawn) [Example 235, 1-(4-Methoxy-benzenesulfonyl)-2-oxo-3-{2-oxo-1-phenyl-2-[(R)-3-(4-propylpiperazin-1-ylmethyl)-pyrrolidin-1-yl]-ethyl}-2,3-dihydro-1H-benzoimidazole-5-carbonitrile; compound with trifluoroacetic acid]	< 100
COc1ccc(S(=O)(=O)n2c(=O)n(C(C(=O)N3CC[C@H](CN4CCN(C)CC4)C3)c3ccccc3)c3cc(C#N)ccc32)cc1 (stereo partly drawn) [Example 236, 1-(4-Methoxy-benzenesulfonyl)-3-{2-[(R)-3-(4-methyl-piperazin-1-ylmethyl)-pyrrolidin-1-yl]-2-oxo-1-phenyl-ethyl}-2-oxo-2,3-dihydro-1H-benzoimidazole-5-carbonitrile; compound with trifluoroacetic acid]	< 100
CCN1CCN(C[C@H]2CCN(C(=O)C(c3ccccc3)n3c(=O)n(S(=O)(=O)c4ccc(OC)cc4)c4ccc(C#N)cc43)C2)CC1 (stereo partly drawn) [Example 237, 3-{2-[(R)-3-(4-Ethyl-piperazin-1-ylmethyl)-pyrrolidin-1-yl]-2-oxo-1-phenyl-ethyl}-1-(4-methoxy-benzenesulfonyl)-2-oxo-2,3-dihydro-1H-benzoimidazole-5-carbonitrile; compound with trifluoroacetic acid]	< 100
COc1ccc(S(=O)(=O)n2c(=O)n(C(C(=O)N3CC[C@H](CN4CCN(C(C)C)CC4)C3)c3ccccc3)c3cc(C#N)ccc32)cc1 (stereo partly drawn) [Example 238, 3-{2-[(R)-3-(4-Isopropyl-piperazin-1-ylmethyl)-pyrrolidin-1-yl]-2-oxo-1-phenylethyl}-1-(4-methoxy-benzenesulfonyl)-2-oxo-2,3-dihydro-1H-benzoimidazole-5-carbonitrile; compound with trifluoroacetic acid]	< 100
COc1ccc(S(=O)(=O)n2c(=O)n(C(C(=O)N3CCC(N)CC3)c3ccccc3)c3cc(C#N)ccc32)cc1 (stereo not drawn) [Example 239, 3-[2-(4-Amino-piperidin-1-yl)-2-oxo-1-phenyl-ethyl]-1-(4-methoxybenzenesulfonyl)-2-oxo-2,3-dihydro-1H-benzoimidazole-5-carbonitrile]	500 to 10000
COc1ccc(S(=O)(=O)n2c(=O)n(C(C(=O)N3CCC[C@H](N)C3)c3ccccc3)c3cc(C#N)ccc32)cc1 (stereo partly drawn) [Example 240, 3-[2-((S)-3-Amino-piperidin-1-yl)-2-oxo-1-phenyl-ethyl]-1-(4-methoxybenzenesulfonyl)-2-oxo-2,3-dihydro-1H-benzoimidazole-5-carbonitrile]	100 to 500
COc1ccc(S(=O)(=O)n2c(=O)n(C(C(=O)N3CCC[C@@H](N)C3)c3ccccc3)c3cc(C#N)ccc32)cc1 (stereo partly drawn) [Example 241, 3-[2-((R)-3-Amino-piperidin-1-yl)-2-oxo-1-phenyl-ethyl]-1-(4-methoxybenzenesulfonyl)-2-oxo-2,3-dihydro-1H-benzoimidazole-5-carbonitrile]	500 to 10000
COc1ccc(S(=O)(=O)n2c(=O)n(C(C(=O)N3CC[C@H](NCc4c[nH]cn4)C3)c3ccccc3)c3cc(C#N)ccc32)cc1 (stereo partly drawn) [Example 242, 3-(2-{(S)-3-[(1H-Imidazol-4-ylmethyl)-amino]-pyrrolidin-1-yl}-2-oxo-1-phenylethyl)-1-(4-methoxy-benzenesulfonyl)-2-oxo-2,3-dihydro-1H-benzoimidazole-5-carbonitrile; compound with trifluoroacetic acid]	< 100
COc1ccc(S(=O)(=O)n2c(=O)n(C(C(=O)N3CC[C@H](NC4CCN(C(=O)OC(C)(C)C)CC4)C3)c3ccccc3)c3cc(C#N)ccc32)cc1 (stereo partly drawn) [Example 243, 4-((S)-1-{2-[6-Cyano-3-(4-methoxy-benzenesulfonyl)-2-oxo-2,3-dihydrobenzoimidazol-1-yl]-2-phenyl-acetyl}-pyrrolidin-3-ylamino)-piperidine-1-carboxylic acid tert-butyl ester]	500 to 10000
COc1ccc(S(=O)(=O)n2c(=O)n(C(C(=O)N3CC[C@H](NC4CCN(C(C)(C)C)CC4)C3)c3ccccc3)c3cc(C#N)ccc32)cc1 (stereo partly drawn) [Example 244, 3-{2-[(S)-3-(1-tert-Butyl-piperidin-4-ylamino)-pyrrolidin-1-yl]-2-oxo-1-phenylethyl}-1-(4-methoxy-benzenesulfonyl)-2-oxo-2,3-dihydro-1H-benzoimidazole-5-carbonitrile]	< 100
COc1ccc(S(=O)(=O)n2c(=O)n(C(C(=O)N3CC[C@H](NC4CCN(CCF)CC4)C3)c3ccccc3)c3cc(C#N)ccc32)cc1 (stereo partly drawn) [Example 245, 3-(2-{(S)-3-[1-(2-Fluoro-ethyl)-piperidin-4-ylamino]-pyrrolidin-1-yl}-2-oxo-1-phenyl-ethyl)-1-(4-methoxy-benzenesulfonyl)-2-oxo-2,3-dihydro-1H-benzoimidazole-5-carbonitrile]	< 100
COc1ccc(S(=O)(=O)n2c(=O)n(C(C(=O)N3CCC[C@H](NC4CCN(C)CC4)C3)c3ccccc3)c3cc(C#N)ccc32)cc1 (stereo partly drawn) [Example 246, 1-(4-Methoxy-benzenesulfonyl)-3-{2-[(S)-3-(1-methyl-piperidin-4-ylamino)-piperidin-1-yl]-2-oxo-1-phenyl-ethyl}-2-oxo-2,3-dihydro-1H-benzoimidazole-5-carbonitrile]	100 to 500

From patent publication US8791148B2, “Substituted benzimidazolone derivatives, medicaments comprising them and their use” (AbbVie Deutschland GmbH & Co. KG, priority 2006, dated 2014)
